Measured values taken from patent US10702589B2, “Compositions and methods of treating neurological disorder and stress-induced conditions” (Ann and Robert H. Lurie Children's Hospital of Chicago, priority 2016, dated 2020).

Tested on: AkrRE1/2 luciferase reporters
Experiment: AkrRE1/2 luciferase reporter assay with mevalonate pathway metabolites in primary CGE and MGE cells
Format: cell-based, mouse
Conditions: FOH 0.1-100 μM, GGOH 0.01-100 μM, FIG. 2G-J
Description: For all luciferase experiments, enhancers were cloned into the pGL3 promoter vector (Promega) using the KpnI and NheI restriction sites on the 5′ and 3′ sites, respectively. The Calb1 enhancers (site 1, site 2, and site 3), AkrR enhancers (site 1 and site 2), NPY enhancers (site 1 and site 2), and SST enhancer (site 1) were identified by MACS2 peak analysis of ChIP-seq (DNA sequences obtained from the UCSC genome browser). Primers were designed to PCR amplify enhancer sequences from C57BL/6J mouse genomic DNA into expression plasmids.
MGE and CGE tissues were dissected from E13.5 Swiss Webster embryos, dissociated in L15 media by pipetting several times, and spun through a cell strainer for single cell preparations. Briefly, cells were seeded at a density of 2.5×10^5 cells per cm^2 (Flandin et al. 2011). One day prior to seeding cells, 24-well plates were coated with poly-L-lysine (30 μg/mL; Sigma) and laminin (5 μg/mL; Sigma), while 96-well plates were coated with poly-L-lysine (3 μg/mL; Sigma) and laminin (5 μg/mL; Sigma). Initially, cells were seeded in neurobasal medium (DMEM/F-12 supplemented with L-glutamate, B-27 (Gibco), N2 supplement (Gibco), bovine pituitary extract (35 μg/mL; Life Technologies), mito+ serum extender (BD Biosciences), penicillin (100 U/mL; Gibco), streptomycin (100 μg/mL; Gibco), and glutamax (0.8 mM; Gibco)). […]

SMILES | effect on AkrRE1/2 luciferase reporters, normalized to buffer alone
CC(C)=CCC/C(C)=C/CC/C(C)=C/CC/C(C)=C/CO [GGOH, geranylgeraniol] | dose-dependent, enhancer- and region-specific effects
CC(C)=CCCC(C)=CCCC(C)=CCO [FOH, farnesol] | dose-dependent, enhancer- and region-specific effects
